Reference: BigSolDB 2.1

Cc1cc(C)nc(Nc2ccccc2)n1
solubility (mole fraction)
Settings	283.15 K	288.15 K	293.15 K	298.15 K	303.15 K	308.15 K	313.15 K	318.15 K	323.15 K
in cyclohexane	0.00583	0.00751	0.0095	0.0123	0.0157	0.0213	0.0304	0.0435	0.0614
in ethanol	0.0146	0.0175	0.0211	0.0267	0.0332	0.0438	0.0577	0.0785	0.112
in isobutanol	0.0148	0.0178	0.0236	0.028	0.0345	0.0454	0.0652	0.0937	0.13
in isopropanol	0.0103	0.0126	0.016	0.0198	0.025	0.0324	0.0429	0.0611	0.0861
in methanol	0.0138	0.0162	0.0193	0.0245	0.0311	0.0418	0.0568	0.0765	0.107
in n-butanol	0.0193	0.0251	0.0317	0.0389	0.0498	0.0638	0.0813	0.112	0.145
in n-propanol	0.0179	0.0215	0.0264	0.0316	0.037	0.0481	0.0682	0.0971	0.131
